# Laboratory results published in patent US12403111B2, “Compositions and methods for treating neurodevelopmental disorders” (SynGAP Research Fund, priority 2024, dated 2025).
# Entries after “also recorded” stand apart in the source; their conditions may differ.
# Legend:
# [1] = test system: raskol Drosophila eye phenotype; experiment: Eye phenotype recovery assay (eye size) over several drug concentrations, SYNGAP1 (raskol) knockdown flies; assay type: in vivo, Drosophila melanogaster; conditions: for Effect on eye phenotype recovery (eye size): Example 38, multiple drug dilutions vs control
# Excerpt: Increased eye size over control (dark grey) indicates improved phenotype. […]
# FIG. 42B depicts the eye size effect of NADL, L-Leucine and beta-hydroxyisovaleric acid on raskol Drosophila eye phenotype over multiple drug dilutions from Example 38.
# A prioritized list of top hits was developed to further validate. Priority was place on actionable, safe, and biologically relevant drugs. To validate a top hit, the effect of each drug was tested over three doses. Three concentrations (1, 5, and 25 uM) were compared to a no drug control.
# mTORC1 = mTORC1 (Homo sapiens, UniProt P42345); conditions: cited from earlier work
# [2] = test system: raskol Drosophila eye phenotype; experiment: Drug screen (Prestwick Chemical Library) for rescue of degenerate eye in Drosophila model of SYNGAP1; assay type: in vivo, Drosophila melanogaster; conditions: screen of over 1520 drugs; Z scores >1 indicated improved phenotype
# Excerpt: The invention is also directed in part to a Drosophila melanogaster (fruit fly) model of SYNGAP1. The model is based on eye-specific RNAi knockdown of SYNGAP1, which is called raskol gene in flies. RNAi knockdown of the raskol gene in the eye of Drosophila results in a smaller, degenerate eye (FIG. 1). In one embodiment, the model is used to screen drug that rescue the degenerate eye phenotype in Drosophila melanogaster.
# FIG. 7 is a graph of the Z-score of chemical effects on raskol Drosophila eye phenotype. Z scores >1 indicated improved phenotype; Z scores <1 indicated worsened phenotype. The arrow indicates the Z-score positioning of N-Acetyl-L-leucine (NALL).
# Drosophila (fruit fly) model of SYNGAP1 was generated. This model is partial loss of function of SYNGAP1, similar to what is observed in humans.
# To generate the model, fruit flies were engineered to eliminate SYNGAP1 gene expression in the eye. In flies, the gene is called raskol but herein referred to as SYNGAP1 for clarity. Eye-specific knockdown of SYNGAP1 using RNAi was used. RNAi knockdown of SYNGAP in the eye results in a smaller, disorganized and degenerate eye (FIG. 5).
# The model allows for ascertaining therapeutic efficacy of a compound. The efficacy is evidenced by restoration of normal eye appearance upon treatment with the compound. […]
# raskol Drosophila = experiment: Induced seizures in raskol Drosophila; assay type: in vivo, Drosophila melanogaster; conditions: compared to untreated or NADL treated raskol Drosophila
# Excerpt: In addition to the degenerate eye phenotype, raskol Drosophila are prone to induced seizures, as compared to wild type Drosophila.
# [3] = test system: tyrosine catabolic process; experiment: RNAseq of untreated vs NALL-treated raskol Drosophila; assay type: in vivo, Drosophila melanogaster; conditions: NALL-treated vs untreated raskol flies; TAT, HPD, FAA
# Description: Enzymes TAT, HPD, FAA highlight the differences in RNA expression in the presence of NALL treatment; molecules are all associated with the tyrosine catabolic process.
# Finally, RNAseq was performed to compare gene regulation differences between raskol Drosophila untreated and NALL-treated flies.
# LAT1 = LAT1 (Homo sapiens, UniProt Q01650); conditions: cited from earlier work
# Chain of LAT1 (Q01650 whole entry, species assumed): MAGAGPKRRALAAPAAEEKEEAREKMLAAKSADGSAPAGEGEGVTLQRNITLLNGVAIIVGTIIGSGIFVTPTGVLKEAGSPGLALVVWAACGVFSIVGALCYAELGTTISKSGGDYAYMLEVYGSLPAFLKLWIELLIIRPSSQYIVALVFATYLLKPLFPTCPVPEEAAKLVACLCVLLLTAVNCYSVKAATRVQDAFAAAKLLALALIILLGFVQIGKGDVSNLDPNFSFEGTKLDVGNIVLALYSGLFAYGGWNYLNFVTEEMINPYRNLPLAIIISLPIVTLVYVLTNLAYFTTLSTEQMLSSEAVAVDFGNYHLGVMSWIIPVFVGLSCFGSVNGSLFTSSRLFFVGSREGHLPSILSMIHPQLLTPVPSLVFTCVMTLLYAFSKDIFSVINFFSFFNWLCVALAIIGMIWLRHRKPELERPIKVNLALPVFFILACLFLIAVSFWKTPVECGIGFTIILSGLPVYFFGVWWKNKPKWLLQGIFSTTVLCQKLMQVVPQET
# Chain of LAT1 (P08195 102-630 partner, species assumed): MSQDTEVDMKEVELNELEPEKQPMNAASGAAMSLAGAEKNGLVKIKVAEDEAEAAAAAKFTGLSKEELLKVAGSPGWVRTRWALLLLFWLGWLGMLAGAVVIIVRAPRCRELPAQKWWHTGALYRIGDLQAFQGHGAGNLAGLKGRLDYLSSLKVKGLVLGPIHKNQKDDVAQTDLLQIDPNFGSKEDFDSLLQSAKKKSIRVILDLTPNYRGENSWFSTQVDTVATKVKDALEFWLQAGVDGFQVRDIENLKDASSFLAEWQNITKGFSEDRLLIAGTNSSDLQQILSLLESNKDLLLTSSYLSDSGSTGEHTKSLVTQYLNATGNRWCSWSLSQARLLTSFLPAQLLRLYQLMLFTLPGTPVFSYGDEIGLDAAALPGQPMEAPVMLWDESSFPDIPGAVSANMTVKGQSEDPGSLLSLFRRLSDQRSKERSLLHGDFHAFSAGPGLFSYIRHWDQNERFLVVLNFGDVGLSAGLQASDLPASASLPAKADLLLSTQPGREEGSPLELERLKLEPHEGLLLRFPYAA
# [4] = test system: mice with experimental traumatic brain injury; conditions: cited from earlier work
# [5] = test system: patients with cerebellar ataxia; conditions: 12 out of 20 individuals; cited from earlier work
# [6] = test system: animals following unilateral labyrinthectomy; conditions: only minor effects on normal vestibular function; cited from earlier work
compound,measurement,setting,value
CC(C)C[C@H](N)C(=O)O [L-Leucine],Effect on eye phenotype recovery (eye size),[1],do not have a significant effect; also recorded: neither NADL nor L-Leucine have a significant effect
same,Effect on mTORC1,mTORC1,activates
"CC(=O)N[C@H](CC(C)C)C(=O)O [NADL, N-acetyl-D-leucine]",Effect on eye phenotype recovery (eye size),[1],do not have a significant effect; also recorded: neither NADL nor L-Leucine have a significant effect
"CC(=O)N[C@@H](CC(C)C)C(=O)O [NALL, N-acetyl-L-leucine]",Z-score of chemical effects on raskol Drosophila eye phenotype,[2],1.35
same,Effect on eye phenotype recovery (eye size),[1],"significant effect on phenotype recovery, as was observed with NALL"
same,Eye phenotype in validation of top hit,"[1]; three concentrations (1, 5, and 25 uM) vs no drug control","larger, more organized, less degenerate eye"
same,Recovery time after induced seizures,raskol Drosophila,faster recovery time
same,Gene regulation differences by RNAseq,[3],Down regulated genes were enriched for tyrosine catabolic processes
same,Binding or blocking of LAT1,LAT1,neither binds nor blocks
same,Effect on mTORC1,mTORC1,inhibit or negatively regulate
same,Autophagy in cortical tissue,[4]; reduced accumulation of autophagosome markers vs controls,increase in autophagy
same,Motor and cognitive outcomes,[4]; treated mice vs controls,significant improvement in motor and cognitive outcomes
CC(=O)N[C@@H](CC(C)C)C(=O)O [acetyl-leucine],Individuals with significant improvements in ataxia,[5],60%
same,Vestibular compensation,[6],accelerate vestibular compensation
"CC(C)(O)CC(=O)O [beta-hydroxyisovaleric acid, Beta-hydroxyisovaleric acid]",Effect on eye phenotype recovery (eye size),[1],do not have a significant effect
